US10351519B2, “Sulfamate derivative compounds, processes for preparing them and their uses” (BIO-PHARM SOLUTIONS CO., LTD., priority 2016, dated 2019)

Key:
Type in all cases: in vivo
Sprague-Dawley rats = assay: Antiallodynic activity on Complete Freund's Adjuvant (CFA)-induced inflammatory pain model; conditions: intraperitoneally; for response vs control in vivo at 50 mg/kg / ED50: Rattus norvegicus, ip; for response vs control in vivo at 50 mg/kg: read-out: CFA-induced pain model efficacy %; for ED50: at peak time
Description: Male, Sprague-Dawley rats (210-250 g, Nara Bio, Korea) were habituated for 1 week before CFA injection and allowed free access to food and water throughout the experimentation. Room temperature and humidity were maintained at 24±2 and 50±10%, respectively.
CFA-induced inflammatory pain was induced by the procedure of Nagakura et al. (2003) and Gregory P. et al. (2010) with minor modifications. CFA (sigma, USA) was injected in the right plantar with a 100 ul volume under gaseous anesthesia with isoflurane. Sham controls were injected with 100 ul of saline and preparation of the vehicles without compound in the vehicle control group. Tactile sensitivity (Mechanical allodynia) was evaluated using von Frey monofilaments before and after treatment, and the animals were included in the study only if the withdrawal threshold value was less than 4 g. One week after surgery, CFA-infused treatment animals (n=4-6), sham-operated animals (n=12), and vehicle control animals (n=17) were tested for tactile sensitivity with von Frey monofilaments 3 trials for each animal. All Animals were placed in a stainless steel mesh chamber and habituated for 30 min in the test box. The tactile sensitivity for ipsilateral hind paw was measured using the up-and-down method (Dixon, 1980) with seven von Frey monofilaments (0.4, 1, 2, 4, 6, 8, and 15 g) to 3 trials. Tactile sensitivity test was followed by Dixon's method (Dixon, 1980). The 50% paw withdrawal threshold for each paw was calculated using the following formula: [Xth] log=[vFr] log+ky where [vFr] is the force of the last von Frey used, k=0.2249 which is the average interval (in log units) between the von Frey monofilaments, and y is a value that depends upon the pattern of withdrawal responses (Dixon, 1980).
Antiallodynic effect of compound was evaluated at the dose of 10-60 mg/kg (n=4-6), intraperitoneally administrated in a volume of 5 ul/g bw in a vehicle of 30% (v/v) PEG or 20% (v/v) Tween 80. The test was performed peak time of efficacy (0.5 or 1 hr) after compound administration.
The relative values compared to the sham (% control) were calculated and shown in Table 4, which show an antiallodynic effect of Compound 1 on CFA-induced pain model in rats.

ICR mice [1] = assay: Anti-epilepsy activity, scPTZ test, mouse; conditions: for ED50: ip
Text: (§1) In this experiment, each test compound sample was formulated as described in Biological Experimental Example I, and administered intraperitoneally to the test animals (mice; ICR or Rat; SD); Experimental animals, male ICR mice and male SD rats, were purchased from OrientBio or Nara biotech, Korea, and housed 4-5 mice per a cage for 4-5 days. The range of mice body weight was used between 19 and 26 grams and range of rats body weight was used between 100 and 130 grams. After Peak time (0.5, 1, 2 and 4 hr) from the administration, PTZ (Pentylenetetrazol) was administered subcutaneously in the concentration capable of inducing 97% intermittent convulsions (mice: 76-110 mg/kg·bw, 10 μl/g, or rats: 79-110 mg/kg·bw, 2 μl/g). If clonic seizure was not observed for at least 30 minutes in the PTZ administered animal, it can be considered that the test compound has anti-epilepsy activity. The median effective dose (ED50) is determined using 6 animals per a concentration (total three different concen-trations), and calculated by Litchfield and Wicoxon log-probit method which is a dose-response relationship.

SD rats [2] = assay: Anti-epilepsy activity, MES test, rat; conditions: for ED50: Rattus norvegicus, po
Description: In the MES test (Ref., G. Villetti et al. Neuropharmacology 40 (2001) 866-878), an electrical stimulus (mice: 50 mA, 60 Hz, 0.2 sec, and rats: 150 mA, 60 Hz, 0.2 sec in the test animal) supplied by an 11A Shocker (IITC Life Science Company) was delivered through corneal electrodes. All mice or rats assigned to any electroshock at peak time were treated with each test compound sample which was dissolved in 30% PEG 400 or 20% tween 80 prepared by saline solvent applied orally before the test. […] Three doses of the test sample were administered orally to 9-18 animals (3-6 mice per dose) for evaluating the respective doses at which 50% of the animals were protected from seizure (ED50). The ED50 value (median effective dose) was calculated by Litchfield and Wicoxon log-probit method which is a dose-response relationship. Experimental animals, male ICR mice and male SD rats, were purchased from OrientBio, Samtako, or Nara Biotech, Korea, and housed in cages (4-5 mice or 3 rats per cage) for 4-5 days. The range of mice body weight was between 19 and 25 grams and range of rats body weight was between 100 and 130 grams.

SD rats [3] = assay: Anti-epilepsy activity, scPTZ test, rat; conditions: for ED50: Rattus norvegicus, ip
Text: as §1

ICR mice [4] = assay: Chemical induced seizure model (PIC, picrotoxin); conditions: for ED50: Mus musculus, ip
Description: Picrotoxin (PIC) were used to induce the behavioral seizures in the experiments. Male ICR mice (purchased from Orient Bio Inc. Korea) of body weight 19-26 g (mice) were used for these studies. The test materials were administered intraperitoneal (ip) route in a volume of 10 ul/g (mice) weight in mice, respectively. Pharmacological effects of the test materials were evaluated to compared test groups (n=6) with a control group (n=6). Control group was administrated vehicle, only. The peak time was determined by administration of test material's random dose for 0.5, 1, 2, 4 hour. The time that the most protect was defined as a peak time and ED50 was determined by other dose administration at the peak time. Chemical (PIC) was dissolved in 0.9% saline and administered subcutaneously (s.c.) at its CD97 (convulsive dose 97%), the dose of Chemical (PIC) that produced clonic seizures in 97% into a loose fold of skin in the midline of the neck in a volume of 10 ul/g (mice) body weight. The animals were then transferred to observation cages and observed continuously for 45 min (PIC). Clonic seizure was elicited in approximately 97% of control group. Protection was defined as a complete absence of clonic seizure over the 45-min observation period. The effective dose of compound necessary to protect against generalized convulsive seizures to 50% of controls (i.e. ED50) was determined by log probit analysis using SPSS software program (SPSS Inc.). (Reference; White H. S., J. H. Woodhead, K. S. Wilcox, J. P. Stables, H. J. Kupferberg, and H. H. Wolf. General Principles; Discovery and Preclinical De-velopment of Antiepileptic Drugs. In: R. H. Levy, R. H. Mattson, B. S. Meldrum, and E. Perucca, eds. Antiepileptic Drugs, 5th Ed. Lippincott Williams & Wilkins, Philadelphia 2002: pp. 36-48.) The obtained results are shown in following Table 10.

| Structure (SMILES) | response vs control in vivo at 50 mg/kg (Sprague-Dawley rats) | CFA-induced pain model Peak Time (Sprague-Dawley rats) | scPTZ test (ip) Peak time (ICR mice [1]) | ED50 (ICR mice [1]) | MES test (po) Peak time (SD rats [2]) | ED50 (SD rats [2]) | scPTZ test (ip) Peak time (SD rats [3]) | scPTZ test (ip) efficacy % (SD rats [3]; 40 mg/kg) | PIC(ip) Peak Time (ICR mice [4]) | ED50 (ICR mice [4]) | ED50 (Sprague-Dawley rats) | ED50 (SD rats [3]) |
| --- | --- | --- | --- | --- | --- | --- | --- | --- | --- | --- | --- | --- |
| C[C@@H](OS(N)(=O)=O)[C@H](O)c1ccccc1Cl [Example 2, (1R, 2R)-1-(2-chlorophenyl)-1-hydroxypropan-2-yl sulfamate] | 23% | 1 h | 1 h | 18.2 mg/kg | (2 h) | 5 mg/kg | 1 h | 33.3% | 1 h | 24.1 mg/kg |  |  |
| C[C@@H](OS(N)(=O)=O)[C@H](O)c1c(Cl)cccc1Cl [Example 8, (1R, 2R)-1-(2,6-dichlorophenyl)-1-hydroxypropan-2-yl sulfamate] |  | 0.5 h | 1 h | 13.5 mg/kg | (1 h) | 24 mg/kg | (1 h) |  | 1 h | 73.9 mg/kg | 52.7 mg/kg | 15.3 mg/kg |
| C[C@H](OS(N)(=O)=O)[C@@H](O)c1c(Cl)cccc1Cl [Example 7, (1S, 2S)-1-(2,6-dichlorophenyl)-1-hydroxypropan-2-yl sulfamate] |  | 1 h | 0.5 h | 8.6 mg/kg | (2 h) | 23.5 mg/kg | (0.5 h) |  | 0.5 h | 28.5 mg/kg | 31.9 mg/kg | 10 mg/kg |
| COCO[C@H](c1ccccc1Cl)[C@@H](C)OS(N)(=O)=O [Example 70, (1R, 2R)-1-(2-chlorophenyl)-1-(methoxymethoxy)propan-2-yl sulfamate] | 23.7% | 0.5 h | 2 h | 50.2 mg/kg | (1 h) | 46.6 mg/kg | (1 h) |  |  |  |  | 36 mg/kg |
